Results as given in patent US9879325B2, “Method for predicting the responsiveness a patient to a treatment with an anti-CD20 antibody” (ASSISTANCE PUBLIQUE—HÔPITAUX DE PARIS, priority 2014, dated 2018).

Columns and labels:
GAPDH = assay: Measurement of GAPDH activity; assay type: biochemical; settings: non-toxic doses
Procedure: Cells were lysed in a buffer containing 10 mmol/L HEPES (pH 7.4), 150 mmol/L NaCl, 5 mmol/L EDTA, 1% NP40, 10 μg/mL aprotinin, 1 mmol/L phenylmethylsulfonyl fluoride and 10 mmol/L leupeptin (buffer A). Lysates were standardized for protein content and incubated with 0.25 mmol/L NAD, 3.3 mmol/L DTT, 13 mmol/L Na4P2O7 (pH 8.5), 26 mmol/L sodium arsenate, and 25 mmol/L D-glyceraldehyde-3-phosphate in a black 96-well plate (Cellstar). GAPDH activity was measured on a fluoroscan at 445 nm as the increase in fluorescence related to NADH accumulation. Activity is expressed as the change in absorbance per milligram of protein.

HIF-1 = HIF-1 activity luciferase assay; assay type: cell-based; settings: non-toxic doses; hypoxia
Procedure: HIF-1 activity. HeLa cells stably expressing the p3HRE-Dptk-LUC vector, which contain three copies of the hypoxia-responsive element (HRE) from the erythropoietin gene (Dayan et al., 2006), were transiently transfected (calcium phosphate) with control vector (pMIG or empty pSUPER vector) or vectors (2 μg) to either overexpress or to silence GAPDH. The following day, transfected cells were exposed to normoxia or hypoxia 1% O2 for 24 hours before cell lysis in a reporter lysis buffer (Promega). It is worth noting that for determination of HIF-1 activity in hypoxia, cells were directly lysed in the hypoxic chamber). The luciferase assay was performed as previously described (Jacquin et al., 2013).

HIF-1α = HIF-1α protein expression (Western blot); assay type: cell-based; settings: non-toxic doses; hypoxia
Procedure: Briefly, after exposure to normoxia or hypoxia, cells were washed and lysed in laemmli buffer. Cells exposed to hypoxia were lysed in the hypoxic chamber. Proteins (40 μg) were separated on 8% to 12% SDS polyacrilamide gels and transferred onto polyvinylidene difluoride membranes (Millipore). Membranes were then blotted with antibody corresponding to the indicated proteins. Immunoreactive bands were detected with a horseradish peroxidase (HRP) anti-mouse (Dako) or anti-rabbit (Cell Signaling) by enhanced chemiluminescence (Pierce). When indicated, Western blot quantification was made using ImageJ software.

NF-κB [1] = assay: Electrophoretic mobility shift assay (EMSA) of NF-κB binding in Raji cells; assay type: cell-based, human; settings: hypoxia 1% O2 24 hours, 0.2 μg/ml
Procedure: Total cell extracts from Raji cells treated or not with 0.2 μg/ml of KA and exposed to normoxia or hypoxia 1% O2 for 24 hours were prepared as previously described (Bottero et al., 2003). For mobility shift assay, a NF-κB probe consisting of a synthetic double stranded oligonucleotide containing the KB binding site of the Igκ promoter was used. The end-labeled probe (T4 kinase) was incubated with extracts samples for 20 minutes at 30° C. Complexes were separated by electrophoresis on a 5% non-denaturating polyacrylamide gel in 0.5×TBE. Dried gels were subjected to autoradiography.

NF-κB [2] = assay: NF-κB activity luciferase assay; assay type: cell-based
Procedure: HeLa cells stably expressing GAPDH-V5 or GAPDH double mutant (DM-V5) control (pMIG) were transiently co-transfected by the classical calcium phosphate method with 0.5 μg of a vector encoding cFP and 2 μg of a luciferase reporter gene controlled by a minimal tk promoter ans sex reiterated KB sites (icBx6 tk luc). Forty-eight hours after transfection, cells were exposed to either normoxia or hypoxia 1% O2 for 24 hours before harvesting and analyzing as previously described (Bottero et al., 2003).

GAPDH-TRAF2 interaction = assay: GAPDH-TRAF2 co-immunoprecipitation in cells cultured in hypoxia; assay type: cell-based; settings: Eμ-Myc and HeLa cells
Procedure: (§1) Protein G Sepharose 4B beads (Invitrogen, CA, USA) were first incubated with rabbit anti-TRAF2 or mouse anti-GAPDH antibody or IgG control (Santacruz, Calif., USA) for 4 hours at 4° C. Beads were then incubated overnight with 1 mg of precleared protein lysed in 20 mM Tris-HCl, pH 7.4, 137 mM NaCl, 1 mM EGTA, 10% glycerol, 1% Triton X-100, 1.5 mM MgCl2, 1 μg/μl PMSF, protease and phosphatase inhibitor cocktail (Thermo Scientific). Samples were then washed five times, boiled in Laemmli buffer and analyzed by immunoblotting with the indicated antibodies

GAPDH/TRAF2 interaction = biological target: T1, GAPDH/TRAF2 interaction (Mus musculus, UniProt P16858); assay: GAPDH/TRAF2 co-immunoprecipitation in tissues of Eμ-Myc bearing mice; assay type: in vivo; settings: 24 hours after treatment
T1 construct: from tissue; lymph node tumors are collected elsewhere in the text
T1 sequence (P16858 whole entry): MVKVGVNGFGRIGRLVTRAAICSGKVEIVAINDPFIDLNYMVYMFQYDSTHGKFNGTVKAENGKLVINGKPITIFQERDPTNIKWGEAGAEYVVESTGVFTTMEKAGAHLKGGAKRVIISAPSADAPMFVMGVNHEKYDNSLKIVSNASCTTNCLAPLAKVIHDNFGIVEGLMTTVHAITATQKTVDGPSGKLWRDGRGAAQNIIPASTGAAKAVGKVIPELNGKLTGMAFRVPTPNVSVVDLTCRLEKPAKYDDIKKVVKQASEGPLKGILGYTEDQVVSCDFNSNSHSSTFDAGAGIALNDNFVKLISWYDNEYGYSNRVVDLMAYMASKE
Procedure: as §1, with “Consequently, we investigated GAPDH-TRAF2 binding in Eμ-Myc and HeLa cells and evidenced that GAPDH could be co-immunprecipitated with TRAF2 when cells are cultured in hypoxia. […] We further tested this interaction in vivo. For that matter Eμ-Myc bearing mice were treated once with PBS or with the covalent inhibitor koningic acid (i.p) and GAPDH/TRAF2 interaction was investigated by co-immunoprecipation in tissues, 24 hours after treatment. […] Protein” for “Protein”

hif-1α mRNA = hif-1α mRNA in vivo (qPCR); design: species or system mouse; settings: 5 mg/kg
Procedure: Consequently, we investigated GAPDH-TRAF2 binding in Eμ-Myc and HeLa cells and evidenced that GAPDH could be co-immunprecipitated with TRAF2 when cells are cultured in hypoxia. […] We further tested this interaction in vivo. For that matter Eμ-Myc bearing mice were treated once with PBS or with the covalent inhibitor koningic acid (i.p) and GAPDH/TRAF2 interaction was investigated by co-immunoprecipation in tissues, 24 hours after treatment.
(§2) Total RNA was extracted from cells using the RNA extraction kit (Qiagen) according to the manufacturer's instructions. Total RNA (2 μg) was added to 20 μl reverse transcription-PCR using the Omniscript kit (Qiagen). The relative mRNA expression level of gapdh, hif-1α, ca9, vegf-α, ldh-a (mouse and human) were obtained by real-time quantification PCR (qPCR), using the TaqMan PCR Master Mix (Eurogentec) and TaqMan assay primer set (Applied Biosystems, Foster City, Calif.) on the 7500 Fast and the Step One (Applied Biosystems) according to the manufacturer's instructions (sequences provided upon request). For in vitro experiment, all samples were normalized to rplp0. All mRNA samples from human tumor tissues were normalized by ppia (cyclophilin-a).

[3] = tested on: ms4a1 (CD20 encoding gene); assay: ms4a1 expression in lymphoma bearing mice; design: species or system mouse; settings: in vivo inhibition of GAPDH
Procedure: To get deeper into the mechanism of CD20 expression, we observed that upon 24 hours of hypoxia, primary Eμ-Myc cells are showing a 2-fold increase in mRNA level of ms4a1 when compared to normoxia. […] We then confirmed the effects of hypoxia on CD20 cell surface expression using the human Burkitt's lymphoma cell line Raji.
as §2

[4] = tested on: CD20 cell surface expression; assay: CD20 cell surface expression by flow cytometry in Raji cells; assay type: cell-based, human; settings: hypoxia 1% O2 48 h, non-toxic doses (0.1 μg/ml)
Procedure: Cells (0.5·10^6) cells (in triplicate) were washed 1×PBS and incubated at 4° C. with the monoclonal anti-CD20 (Affymetrix eBioscience) at a concentration of 2.5 μg/ml for 45 minutes. IgG isotypic controls were included. Cells were then washed 2×PBS and incubated at 4° C. for 30 minutes in the dark with a anti-mouse Alexa 488 (1 μg/ml). Then cells were washed twice in PBS and resuspend in 100 μl of PBS containing 0.5 μg/ml of DAPI (4′,6-diamidino-2-phenylindole). Ten thousand events were analyzed immediately by flow cytometry using a MACSQuant Analyzer (Miltenyi Biotec). The mean fluorescence intensity (MFI) obtained for lived (DAPI negative) CD20 positive cells was reported. Histograms represent the average of three independent experiments.
A total of 1×10^6 cells were washed in PBS and incubated for 45 minutes at 4° C. with the monoclonal anti-CD20 antibody (2.5 μg/ml) (Affymetrix eBioscience). The cells were then washed in PBS and incubated at 4° C. for 30 minutes with an anti-mouse Alexa Fluor 488 (1 μg/ml). […] After washing twice in the saponine-containing buffer, the cells are resuspended in PBS/2% FCS and analyzed by flow cytometry. Immediately afterwards, 10,000 events were analyzed by flow cytometry using a MACSQuant Analyzer (Miltenyi Biotec). The mean fluorescence intensity (MFI) obtained for CD20-low, CD20-high, GAPDH-low, GAPDH-high cells, was reported.

DLBCL patients = assay: Overall survival of DLBCL patients by gapdh mRNA level; assay type: in vivo, human
Source text: Thirteen patients who underwent biopsy for DLBCL between May 2007 and May 2011 at the Saint-Louis Hospital (Department of Onco-hematology, Hopital Saint-Louis, Paris, France) were selected. The patients received the necessary information concerning the study and consent was obtained. Morphologic classification of the tumors was assigned according to the World Health Organization (WHO) criteria (Campo et al., 2011). The tumors extensions were staged according to the Ann Arbor stage, and all patients were scored by IPIaa (project, 1993). Follow-up data for all the patients were collected regularly. Among these patients, 8 relapsed (61.5%) and 6 (46%) died.
Data are expressed as mean±standard deviation (SD). Differences in the calculated mean between each group were analyzed using Fisher test (quantitative variable). Survival functions were estimated by the Kaplan-Meier method and compared by the log-rank test. A P value of 0.05 or less was considered to indicate statistical significance. Kaplan-Meier survival curves and box plot representations were performed using “R” software.
[…] was measured from the date of diagnosis to that of death from any cause or to the stopping date. When the latter date was not reached, the data were censored at the date of the last follow-up evaluation. […]

CC(C)[C@H]1CC[C@@]2(CO2)[C@H]2C(=O)OCC(C(=O)O)=C[C@H]12 [Koningic acid]
reduction of GAPDH activity (GAPDH): 50-60%
HIF-1 activity (HIF-1): decrease in HIF-1 activity
HIF-1α expression (HIF-1α): decrease
NF-κB binding to its consensus sequence (NF-κB [1]): reduced its binding in hypoxia
NF-κB transcriptional activity (NF-κB [2]; hypoxic HeLa cells): prevented NF-κB transcriptional activity
NF-κB activity (NF-κB [2]; specific and partial inhibition of GAPDH in hypoxia): decreases NF-κB activity
GAPDH-TRAF2 interaction (GAPDH-TRAF2 interaction): loss of GAPDH-TRAF2 interaction
GAPDH/TRAF2 interaction in vivo (GAPDH/TRAF2 interaction; 0.5 mg/kg i.p. once): inactive dose
GAPDH/TRAF2 interaction in vivo (GAPDH/TRAF2 interaction; 5 mg/kg i.p. once): reduced the interaction
hif-1α mRNA in vivo (hif-1α mRNA): reduced hif-1α mRNA
ms4a1 expression [3]: reduction in ms4a1 expression
hypoxic-dependent increase in CD20 cell surface expression [4]: prevented this hypoxic-dependent increase in CD20 expression

Rituximab-based chemotherapy: anti-CD20 monoclonal antibody rituximab given with chemotherapy to DLBCL patients upon diagnosis
patients still alive 350 days following the diagnosis (DLBCL patients; "low" gapdh group): 33%
patients still alive 350 days following the diagnosis (DLBCL patients; DLBCL with "high" levels of gapdh mRNA): 100%
